Reference: US20170210778A1, “NOVEL COMPOUNDS” (The Provost, Fellows, Foundation Scholars, and the other …, priority 2014, published 2017)

Tests used:
murine NOD1 = target: T1, murine NOD1 (Mus musculus, UniProt Q8BHB0); assay: NOD1 functional agonist assay, 293mNOD1-SEAP reporter cells; type: cell-based; settings: 293mNOD1 cells, OD above 3*O.D of negative control
T1 construct: expressed in transfected cells; host or cells: HEK293
T1 sequence (Q8BHB0 1-953): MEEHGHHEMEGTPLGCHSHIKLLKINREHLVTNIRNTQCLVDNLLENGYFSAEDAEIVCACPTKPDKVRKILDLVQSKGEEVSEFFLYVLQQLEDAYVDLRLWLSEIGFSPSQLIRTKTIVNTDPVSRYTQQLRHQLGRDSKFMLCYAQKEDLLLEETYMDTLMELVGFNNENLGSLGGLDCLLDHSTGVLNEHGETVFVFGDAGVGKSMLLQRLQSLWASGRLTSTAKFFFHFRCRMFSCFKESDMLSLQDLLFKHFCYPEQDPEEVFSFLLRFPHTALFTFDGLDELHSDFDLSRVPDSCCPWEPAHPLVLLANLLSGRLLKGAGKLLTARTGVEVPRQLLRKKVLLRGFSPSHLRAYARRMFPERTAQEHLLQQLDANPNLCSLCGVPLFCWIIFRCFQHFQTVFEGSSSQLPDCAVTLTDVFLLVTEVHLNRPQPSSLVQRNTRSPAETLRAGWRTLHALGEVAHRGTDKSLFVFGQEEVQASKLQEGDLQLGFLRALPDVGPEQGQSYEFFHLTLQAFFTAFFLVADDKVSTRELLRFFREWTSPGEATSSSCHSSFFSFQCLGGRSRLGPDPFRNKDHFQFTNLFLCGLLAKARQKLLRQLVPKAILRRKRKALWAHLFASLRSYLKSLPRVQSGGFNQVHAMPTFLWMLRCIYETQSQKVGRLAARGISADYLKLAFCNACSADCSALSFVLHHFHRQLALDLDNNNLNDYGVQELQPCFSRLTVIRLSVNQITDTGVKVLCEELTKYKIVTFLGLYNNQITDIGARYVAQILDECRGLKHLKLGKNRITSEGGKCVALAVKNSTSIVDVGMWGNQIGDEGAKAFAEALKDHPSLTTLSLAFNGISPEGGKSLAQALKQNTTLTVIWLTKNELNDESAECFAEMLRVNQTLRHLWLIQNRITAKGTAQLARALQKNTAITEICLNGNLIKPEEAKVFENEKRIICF
How it was run: (§1)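 Stably transfected HEK293 cells overexpressing human or murine NOD1 with an NF-κB/AP-1-inducible SEAP reporter; secreted SEAP detected colorimetrically, absorbance read at 620/655 nm. Value is the lowest concentration giving mean OD above 3× the endotoxin-free water negative control; parental 293 SEAP cells lacking NOD1 served as counter-control.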

[1] = system: LPM in the peritoneal cavity; assay: Numbers of LPM in the peritoneal cavity after i.p. injection; type: in vivo; settings: injected i.p. into mice; FIG. 1B
human NOD1 = target: T2, human NOD1 (Homo sapiens, UniProt Q9Y239); assay: NOD1 functional agonist assay, 293hNOD1-SEAP reporter cells; type: cell-based; settings: 293hNOD1 cells, OD above 3*O.D of negative control
T2 construct: expressed in transfected cells; host or cells: HEK293
T2 sequence (Q9Y239 1-953): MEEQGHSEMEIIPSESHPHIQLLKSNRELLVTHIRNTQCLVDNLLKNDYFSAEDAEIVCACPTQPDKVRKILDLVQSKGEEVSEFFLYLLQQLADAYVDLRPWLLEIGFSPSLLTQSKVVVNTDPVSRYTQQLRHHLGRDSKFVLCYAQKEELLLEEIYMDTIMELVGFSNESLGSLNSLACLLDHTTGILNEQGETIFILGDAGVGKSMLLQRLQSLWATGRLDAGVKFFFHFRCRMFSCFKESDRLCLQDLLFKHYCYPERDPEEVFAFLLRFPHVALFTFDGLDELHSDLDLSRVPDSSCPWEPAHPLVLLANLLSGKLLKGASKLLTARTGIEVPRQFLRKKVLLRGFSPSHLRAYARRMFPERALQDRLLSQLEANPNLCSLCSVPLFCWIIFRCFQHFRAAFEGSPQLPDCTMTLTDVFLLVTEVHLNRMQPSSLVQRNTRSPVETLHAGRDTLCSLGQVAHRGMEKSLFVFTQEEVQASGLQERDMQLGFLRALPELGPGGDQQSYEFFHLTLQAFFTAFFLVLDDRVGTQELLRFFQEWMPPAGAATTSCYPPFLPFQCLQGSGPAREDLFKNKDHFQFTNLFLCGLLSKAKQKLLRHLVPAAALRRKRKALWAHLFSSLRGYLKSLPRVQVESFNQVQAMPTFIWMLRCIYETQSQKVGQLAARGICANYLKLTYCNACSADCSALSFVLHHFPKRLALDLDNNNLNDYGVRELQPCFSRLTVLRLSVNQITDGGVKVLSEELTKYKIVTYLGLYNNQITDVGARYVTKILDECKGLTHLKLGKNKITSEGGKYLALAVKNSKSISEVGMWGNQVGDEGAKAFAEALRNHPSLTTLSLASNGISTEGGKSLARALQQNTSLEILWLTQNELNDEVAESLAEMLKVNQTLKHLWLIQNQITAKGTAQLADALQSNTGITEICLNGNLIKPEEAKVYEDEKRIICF
How it was run: as §1

EAE in C57BL/6 mice = assay: Experimental Autoimmune Encephalomyelitis (EAE) model; type: in vivo; settings: for EAE-associated weight loss / clinical course of EAE: treated mice, FIG. 1C
Source text: EAE is induced in C57BL/6 mice by immunization with an emulsion of MOG35-55 or MOG1-125 in complete Freund's adjuvant (CFA), followed by administration of pertussis toxin (PT) in PBS, first on the day of immunization and then again the following day.

PEC = assay: IL-10 production by PEC in vitro; type: cell-based; settings: 24 h stimulation, FIG. 1A
[2] = system: DSS-induced inflammation in the colon; assay: DSS-induced inflammation in the colon model; type: in vivo, mice; settings: 2% DSS in drinking water 7 days; 25 μg i.p. on days 0, 1, 2, 4 and 6; FIG. 4
Description: Mice were given water or 2% DSS in their drinking water for 7 days and were treated i.p. with either PBS, vehicle or 25 μg compound of Example 29 (Ex.29) on days 0, 1, 2, 4 and 6 of the experiment. Mice were sacrificed on day 7 and colon sections were prepared and stained with H&E.
Arrows indicate areas of severe inflammatory pathology.

DSS-induced colitis = assay: Dextran Sulfate Sodium (DSS)-induced colitis mouse model; type: in vivo, mice; settings: 2% DSS in drinking water 7 days; 25 μg i.p. on days 0, 1, 2, 4 and 6; FIG. 3
Description: As provides in FIG. 3, mice were given water or 2% DSS in their drinking water for 7 days and were treated i.p. with either PBS, vehicle or 25 μg compound of Example 29 (Ex.29) on days 0, 1, 2, 4 and 6 of the experiment. (3A) Body weights were recorded daily. (3B) Mice were sacrificed on day 7 and colon lengths were measured (mean±SE; n=6). (3C) Total mRNA were extracted from the colons on day 7 and the relative expression (RE) of the M2 macrophage markers Relma, and the M1 macrophage markers Ptgs2 (Cox2) and Nos2 were quantified by qPCR (mean±SE; n=6). *, P<0.05; and **, P<0.01 versus DSS+vehicle treated mice.

SMILES | mNod1: concentration where a significant mean optical density (OD) can be observed (murine NOD1) [µg/mL] | numbers of LPM in the peritoneal cavity [1] | hNod1: concentration where a significant mean optical density (OD) can be observed (human NOD1) [µg/mL] | EAE attenuation in WT mice (EAE in C57BL/6 mice; WT mice, FIG. 2) | onset of EAE (EAE in C57BL/6 mice; treated IL-10−/− mice versus untreated WT or IL-10−/− mice, FIG. 2) | mice that developed EAE (EAE in C57BL/6 mice; treated IL-10−/− mice, FIG. 2) [%] | mice with any symptoms of EAE (EAE in C57BL/6 mice; treated WT mice, FIG. 2) | EAE-associated weight loss (EAE in C57BL/6 mice) | clinical course of EAE (EAE in C57BL/6 mice) | production of IL-10 by PEC (PEC) | protection against DSS-induced inflammation in the colon [2] | protection against DSS-induced colitis (DSS-induced colitis)
CCCCCCC(=O)N[C@H](CCC(=O)N[C@H](CSC[C@H](N)C(=O)O)C(=O)N[C@H](C)C(=O)O)C(=O)O [Example 15, N^5-((S)-3-(((R)-2-amino-2-carboxyethyl)thio)-1-(((R)-1-carboxyethyl)amino)-1-oxopropan-2-yl)-N^2-heptanoyl-D-glutamine] | 0.01 | significantly increased | 0.01 | significantly attenuated | slightly later onset | 100 | one of 6 | prevented associated weight loss | significantly attenuated | induced the production of significant concentrations of IL-10 |  | 
CCCCCCCCCCCCCC(=O)N[C@@H](C)C(=O)N[C@H](CCC(=O)N[C@H](CSC[C@H](N)C(=O)O)C(=O)NCC(=O)O)C(=O)O [Example 29, N^5-((S)-3-(((R)-2-amino-2-carboxyethyl)thio)-1-((carboxymethyl)amino)-1-oxopropan-2-yl)-N^2-(tetradecanoyl-L-alanyl)-D-glutamine] | 0.001 | significantly increased | 0.0001 |  |  |  |  | prevented associated weight loss | significantly attenuated | induced the production of significant concentrations of IL-10 | protects mice against DSS-induced inflammation in the colon | protects mice against DSS-induced colitis
